Test in all cases: biochemical
In test [1] the target is T1, NEK1 (Homo sapiens, UniProt Q96PY6).
T1 sequence (Q96PY6 1-1258): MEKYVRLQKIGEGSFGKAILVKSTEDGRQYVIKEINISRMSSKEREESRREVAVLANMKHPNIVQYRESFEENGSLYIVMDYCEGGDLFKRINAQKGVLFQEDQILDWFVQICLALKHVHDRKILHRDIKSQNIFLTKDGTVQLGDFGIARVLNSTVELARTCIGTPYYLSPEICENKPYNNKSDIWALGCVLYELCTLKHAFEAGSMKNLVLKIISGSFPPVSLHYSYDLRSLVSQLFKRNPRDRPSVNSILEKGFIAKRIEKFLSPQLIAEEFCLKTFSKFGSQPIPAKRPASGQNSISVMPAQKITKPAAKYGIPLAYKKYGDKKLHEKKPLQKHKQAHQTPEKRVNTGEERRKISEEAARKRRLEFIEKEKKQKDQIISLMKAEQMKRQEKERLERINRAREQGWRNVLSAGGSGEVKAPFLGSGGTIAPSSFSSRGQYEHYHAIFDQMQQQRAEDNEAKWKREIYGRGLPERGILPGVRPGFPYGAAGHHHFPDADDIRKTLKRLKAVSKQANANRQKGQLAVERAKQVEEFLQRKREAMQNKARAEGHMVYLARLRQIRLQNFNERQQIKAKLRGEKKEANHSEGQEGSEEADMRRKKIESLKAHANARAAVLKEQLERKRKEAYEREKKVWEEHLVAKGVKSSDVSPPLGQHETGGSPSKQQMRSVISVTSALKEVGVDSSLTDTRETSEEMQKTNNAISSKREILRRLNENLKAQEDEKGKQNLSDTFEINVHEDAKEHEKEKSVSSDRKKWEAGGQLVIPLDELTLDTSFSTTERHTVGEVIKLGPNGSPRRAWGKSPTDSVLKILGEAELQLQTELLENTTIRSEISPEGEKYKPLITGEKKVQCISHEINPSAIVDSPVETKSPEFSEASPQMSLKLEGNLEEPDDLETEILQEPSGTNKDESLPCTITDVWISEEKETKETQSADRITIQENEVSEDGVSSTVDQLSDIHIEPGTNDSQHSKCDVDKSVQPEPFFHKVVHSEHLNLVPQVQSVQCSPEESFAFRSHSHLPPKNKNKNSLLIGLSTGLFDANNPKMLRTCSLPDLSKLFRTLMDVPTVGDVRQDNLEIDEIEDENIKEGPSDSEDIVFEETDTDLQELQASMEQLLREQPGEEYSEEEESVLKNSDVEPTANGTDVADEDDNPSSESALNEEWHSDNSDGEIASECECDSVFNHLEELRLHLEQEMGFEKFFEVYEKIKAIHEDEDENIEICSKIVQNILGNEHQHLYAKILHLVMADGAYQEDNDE

The target in test [2] is T2, MAP4K2 (Homo sapiens, UniProt Q12851).
T2 sequence (Q12851 1-820): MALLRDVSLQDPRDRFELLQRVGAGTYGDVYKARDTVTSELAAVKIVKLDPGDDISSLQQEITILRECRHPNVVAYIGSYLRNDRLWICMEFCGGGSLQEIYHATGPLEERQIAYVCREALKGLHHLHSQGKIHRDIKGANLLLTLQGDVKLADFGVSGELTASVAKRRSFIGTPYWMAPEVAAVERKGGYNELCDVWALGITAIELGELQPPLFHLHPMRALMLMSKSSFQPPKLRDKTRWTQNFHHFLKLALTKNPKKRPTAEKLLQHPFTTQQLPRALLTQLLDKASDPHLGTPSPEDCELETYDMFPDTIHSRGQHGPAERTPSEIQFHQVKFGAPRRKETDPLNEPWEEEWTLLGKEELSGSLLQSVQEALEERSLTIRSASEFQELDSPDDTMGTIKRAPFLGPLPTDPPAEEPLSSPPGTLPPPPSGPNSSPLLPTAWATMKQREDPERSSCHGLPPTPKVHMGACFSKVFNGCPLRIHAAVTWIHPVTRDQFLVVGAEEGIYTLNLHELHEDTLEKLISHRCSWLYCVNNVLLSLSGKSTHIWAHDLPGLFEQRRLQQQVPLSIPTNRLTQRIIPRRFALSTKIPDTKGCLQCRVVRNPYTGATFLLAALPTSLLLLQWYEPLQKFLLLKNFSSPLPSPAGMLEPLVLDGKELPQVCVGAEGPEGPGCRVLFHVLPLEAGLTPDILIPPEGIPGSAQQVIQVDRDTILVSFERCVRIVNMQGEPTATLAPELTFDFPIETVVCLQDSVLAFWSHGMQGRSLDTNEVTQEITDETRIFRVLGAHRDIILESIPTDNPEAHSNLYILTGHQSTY

Test [3] deals with T3, EPHB4 (Homo sapiens, UniProt P54760).
T3 sequence (P54760 1-987): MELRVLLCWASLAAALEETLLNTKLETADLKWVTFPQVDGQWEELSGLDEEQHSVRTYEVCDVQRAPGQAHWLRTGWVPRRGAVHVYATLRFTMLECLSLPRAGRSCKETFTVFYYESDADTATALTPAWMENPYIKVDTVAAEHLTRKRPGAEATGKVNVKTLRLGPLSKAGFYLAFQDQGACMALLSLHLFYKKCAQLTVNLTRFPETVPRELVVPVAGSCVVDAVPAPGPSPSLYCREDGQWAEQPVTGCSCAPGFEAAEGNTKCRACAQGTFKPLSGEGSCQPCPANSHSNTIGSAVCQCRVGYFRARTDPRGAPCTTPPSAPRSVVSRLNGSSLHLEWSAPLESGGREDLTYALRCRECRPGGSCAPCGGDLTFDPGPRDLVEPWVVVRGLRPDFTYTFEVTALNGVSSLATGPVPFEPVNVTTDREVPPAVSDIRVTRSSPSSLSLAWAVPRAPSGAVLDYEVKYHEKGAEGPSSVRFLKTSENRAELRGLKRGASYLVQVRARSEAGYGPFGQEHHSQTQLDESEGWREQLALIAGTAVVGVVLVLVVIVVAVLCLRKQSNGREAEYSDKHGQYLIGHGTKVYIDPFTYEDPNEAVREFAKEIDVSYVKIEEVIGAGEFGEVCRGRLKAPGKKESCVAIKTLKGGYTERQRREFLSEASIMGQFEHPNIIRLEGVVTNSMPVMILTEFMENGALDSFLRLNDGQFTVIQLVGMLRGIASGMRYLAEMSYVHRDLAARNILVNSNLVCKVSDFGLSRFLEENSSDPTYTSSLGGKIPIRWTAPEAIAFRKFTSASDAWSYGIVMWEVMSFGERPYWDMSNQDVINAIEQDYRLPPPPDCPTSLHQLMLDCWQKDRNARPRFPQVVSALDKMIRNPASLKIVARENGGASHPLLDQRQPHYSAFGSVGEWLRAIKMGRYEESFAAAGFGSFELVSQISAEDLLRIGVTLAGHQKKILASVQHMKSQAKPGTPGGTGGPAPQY

Each structure is given as a SMILES string. “And” between values parts separate entries of the source, which are not always exact repeats. Equal entries are not always repeated. Bounds are passed on as bounds.

Broadly, the IC50 is the concentration that inhibits the measured activity by half. For `CN1CCN(c2ccc(Nc3ncc(C#N)c(Nc4ccccc4C(N)=O)n3)cc2)CC1.Cl` [TCMDC-134116], the IC50 in test [1] is 0.57 µM and 0.47 µM; in test [2], 1 µM; in test [3] it was 4.3 µM.
Turning to `Cl.NCC1(c2nc(-c3ccc(Cl)c(O)c3)c(-c3ccncc3)[nH]2)CCCCC1` [TCMDC-141154], the IC50 in test [1] is more than 20 µM; in test [2], more than 20 µM; in test [3], 5.3 µM.
Regarding `CN(C)CC(O)COc1ccc(Nc2ncc([N+](=O)[O-])c(Nc3ccccc3O)n2)cc1.O=C(O)C(F)(F)F` (stereo not drawn) [TCMDC-141399], the IC50 in test [1] is 6.4 µM; in test [2] it was more than 20 µM; in test [3], more than 20 µM.
